How the values were obtained:
[1] = Accelerated stability of Compound 2 formulations; N-oxide degradation product by RPLC; assay type: physicochemical; details: addition of ferrous ion source to the formulations, six weeks
Method: Compound 2 was similarly formulated with, inter alia, excipients comprising about 0.01% of ferrous ammonium sulfate hexahydrate into solid binary pharmaceutical formulations. The excipients further included microcrystalline cellulose (Avicel®), lactose, or silicified microcrystalline cellulose (Prosolv®; Penwest Pharmaceuticals; Patterson, N.Y.).
The formulations so prepared were then stored under accelerated stability conditions, i.e. at 40° C. at 75% relative humidity and 50° C. at 20% relative humidity for six weeks. Reversed-phase ion pair liquid chromatography (RPLC) was used to separate Compound 2 from its N-oxide oxidative degradation product. RPLC was performed utilizing a Waters Symmetry C18 column (Waters Instrument Co.; Milford, Mass.) 15 cm length×3.9 mm I.D. at a temperature of 40° C. using a mobile phase of buffer (20 mM KH2PO4 (pH adjusted to 3.0 with phosphoric acid, with 0.1% octanesulfonic acid): acetonitrile (60:40 v/v), a flow rate of 1.0 mL/min., and an injection volume of 10 μL at a run time of 35 minutes. [drawing 2]

[2] = Accelerated stability of Compound 1 tablets; oxidative degradation by-products by RPLC; assay type: physicochemical; details: addition of ferrous ion source to the formulation, six weeks
Method: Compound 1 was formulated with, inter alia, excipients comprising about 0.01% by weight of ammonium ferrous sulfate hexahydrate into solid binary pharmaceutical formulations as follows. A solution of 350 mg of ferrous ammonium sulfate hexahydrate, dissolved in 100 ml of pure water, was added to 500 g of microcrystalline cellulose (Avicel®; FMC; Philadelphia, Pa.) and the mixture was mixed thoroughly for about ten minutes. The mixture was then dried in an Aeromatic fluid-bed dryer (Niro Inc.; Columbia, Md.) at an inlet temperature of 65° C. The dried Avicel® excipient so prepared comprising the ferrous ion source was milled through a Mini-Comil 193 (Quadro Engineering; Waterloo, Ontario, Canada) with a stainless steel screen. This identical procedure was employed to prepare excipients comprising lactose and the ferrous ion source. A pre-determined amount of Compound 1, the dried Avicel® or lactose excipient comprising the ferrous ion source, and crospovidone (BASF Corp.; Mount Olive, N.J.) were added to a stainless steel V-blender and blended for about 20 minutes. Magnesium stearate was then added and the resulting mixture was blended for an additional five minutes. […]

SMILES | formation of N-oxide oxidative degradation by-product on addition of the ferrous ion source [1] | formation of M+16 and M+32 oxidative degradation by-products on addition of the ferrous ion source [2]
Oc1ccc2c(c1)CC[C@H](c1ccccc1)[C@@H]2c1ccc(OCCN2CCCC2)cc1 (relative stereo) [Compound 2, cis-6-phenyl-5-[4-(2-pyrrolidin-1-yl-ethoxy)-phenyl]-5,6,7,8-tetrahydronaphthalen-2-ol] | inhibited significantly | 
COc1ccc(C(C)C)cc1CN[C@H]1C2CCN(CC2)[C@H]1C(c1ccccc1)c1ccccc1 [Compound 1, (2S,3S)-N-(5-isopropyl-2-methoxyphenyl)methyl-2-diphenylmethyl-1-azabicyclo[2.2.2]octan-3-amine] |  | inhibited significantly

— patent publication US6767558B2, “Inhibiting oxidative degradation of pharmaceutical formulations” (Pfizer Inc., priority 2000, dated 2004)
